Tested on: cattle tick (Haemaphysalis longicornis)
Experiment: Acaricidal effect on cattle tick, absorbent cotton in glass bottle
Format: in vivo
Conditions: 96 h, 100 ppm drug solution, 2 ml, 4 days after inoculation, read-out: acaricidal effect against cattle tick (corrected mortality, judged by criterion)
Experimental: Acaricidal Effect on Cattle Tick (Haemaphysalis longicornis)
An absorbent cotton was placed on the basement of a glass bottle (diameter 3 cm×height 4.5 cm). The pyrimidine derivative of the present invention represented by the formula (I) or a salt thereof was dispersed in water to give a diluted drug solution (100 ppm). The drug solution (2 ml) was added dropwise. Cattle ticks were inoculated by 5 each, and the bottle was capped with a mesh. After 4 days from the inoculation, the dead ticks and live ticks were counted, and the corrected mortality was calculated by the following formula. corrected mortality (%)=(survival rate in untreated group−survival rate in treated group)/(survival rate in untreated group)×100 Diagnostic criteria . . . as defined in Experimental Example 1

COc1cncnc1OCc1ccc(C(C)(C)C)cc1 [1-1, 4-(4-t-butylbenzyloxy)-5-methoxypyrimidine]
mortality at 100 ppm: 50 to 79%

— patent publication US8895574B2, “Benzyloxypyrimidine derivative, agricultural/ horticultural insecticide comprising derivative and method for using same” (Nihon Nohyaku Co., Ltd., priority 2010, dated 2014)
